Measured values published in paper PMC6914789 (Scientific Reports, 2019).

Tests used:
Sirt1 = target: T1, Sirt1 (Homo sapiens, UniProt Q96EB6); test: MS deacetylation assay with acetyl-p53 peptide; assay type: biochemical
T1 construct: Full length human Sirt1
T1 sequence (Q96EB6 2-747): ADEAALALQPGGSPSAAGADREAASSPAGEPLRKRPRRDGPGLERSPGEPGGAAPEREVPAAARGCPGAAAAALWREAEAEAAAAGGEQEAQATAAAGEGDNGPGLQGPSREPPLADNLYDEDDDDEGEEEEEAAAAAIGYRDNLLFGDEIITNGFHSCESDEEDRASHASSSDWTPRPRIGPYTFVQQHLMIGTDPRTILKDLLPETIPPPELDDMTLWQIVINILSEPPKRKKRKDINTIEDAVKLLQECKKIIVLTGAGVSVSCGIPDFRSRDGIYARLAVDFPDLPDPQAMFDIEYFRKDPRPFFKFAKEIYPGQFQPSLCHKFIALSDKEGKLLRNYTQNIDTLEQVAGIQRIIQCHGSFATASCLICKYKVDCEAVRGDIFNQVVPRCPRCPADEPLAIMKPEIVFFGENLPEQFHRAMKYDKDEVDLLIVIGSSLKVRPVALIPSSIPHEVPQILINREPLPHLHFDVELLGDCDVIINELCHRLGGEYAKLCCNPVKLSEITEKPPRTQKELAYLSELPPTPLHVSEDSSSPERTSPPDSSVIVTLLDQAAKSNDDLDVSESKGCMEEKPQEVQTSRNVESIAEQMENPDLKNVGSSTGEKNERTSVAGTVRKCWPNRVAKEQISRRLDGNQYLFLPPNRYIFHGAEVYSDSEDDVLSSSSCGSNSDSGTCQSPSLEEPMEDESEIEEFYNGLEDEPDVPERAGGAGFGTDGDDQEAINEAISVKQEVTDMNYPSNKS

Sirt5 = target: T2, Sirt5 (Homo sapiens, UniProt Q9NXA8); test: MS desuccinylation assay with succinyl-CPS1 peptide; assay type: biochemical
T2 construct: residues 34–302
T2 sequence (Q9NXA8 34-302): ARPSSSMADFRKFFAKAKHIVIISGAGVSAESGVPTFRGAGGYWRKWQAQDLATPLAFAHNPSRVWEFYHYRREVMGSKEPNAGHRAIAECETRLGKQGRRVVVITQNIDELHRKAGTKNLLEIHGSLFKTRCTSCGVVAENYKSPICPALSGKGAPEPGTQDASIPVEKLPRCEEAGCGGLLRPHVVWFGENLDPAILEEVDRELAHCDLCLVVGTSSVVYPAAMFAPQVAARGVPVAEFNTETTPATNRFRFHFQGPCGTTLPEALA

Sirt3 = target: T3, Sirt3 (Homo sapiens, UniProt Q9NTG7); test: MS deacetylation assay with acetyl-ACS2 peptide; assay type: biochemical
T3 construct: residues 118–399
T3 sequence (Q9NTG7 118-399): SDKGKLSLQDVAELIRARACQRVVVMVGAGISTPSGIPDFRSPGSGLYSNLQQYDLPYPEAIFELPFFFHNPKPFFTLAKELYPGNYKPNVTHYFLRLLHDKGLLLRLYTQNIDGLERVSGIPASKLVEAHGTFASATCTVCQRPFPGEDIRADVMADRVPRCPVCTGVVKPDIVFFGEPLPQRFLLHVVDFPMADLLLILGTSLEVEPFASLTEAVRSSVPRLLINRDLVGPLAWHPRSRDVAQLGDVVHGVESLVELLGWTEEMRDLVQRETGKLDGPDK

Sirt6 [1] = target: T4, Sirt6 (Homo sapiens, UniProt Q8N6T7); test: crystal structure ([…] Å in Table […]); MS deacetylation assay (activation); assay type: binding
T4 construct: Sirt6(13–308) for crystals; Sirt6(1-355) for activity
T4 sequence (Q8N6T7 whole entry): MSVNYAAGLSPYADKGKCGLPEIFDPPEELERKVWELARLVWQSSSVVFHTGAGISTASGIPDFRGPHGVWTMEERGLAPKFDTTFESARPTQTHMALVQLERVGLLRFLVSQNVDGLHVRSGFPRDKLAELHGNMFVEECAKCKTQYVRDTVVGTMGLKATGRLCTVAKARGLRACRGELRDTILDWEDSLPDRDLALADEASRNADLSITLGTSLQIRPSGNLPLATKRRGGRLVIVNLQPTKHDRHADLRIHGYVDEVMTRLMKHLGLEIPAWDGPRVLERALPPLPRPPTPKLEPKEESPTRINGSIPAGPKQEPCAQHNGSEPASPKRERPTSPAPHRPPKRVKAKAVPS

Sirt6 [2] = target: T4, Sirt6; test: crystal structure at […] Å; MS deacetylation assay (activation at […]); assay type: binding

O=c1c(O)c(-c2ccc(O)c(O)c2)oc2cc(O)cc(O)c12 [compound 1, quercetin]
MS deacetylation assay with acetyl-p53 peptide (Sirt1): Quercetin caused a concentration-dependent inhibition of all Sirtuin isoforms except for Sirt6
MS desuccinylation assay with succinyl-CPS1 peptide (Sirt5): Quercetin caused a concentration-dependent inhibition of all Sirtuin isoforms except for Sirt6
MS deacetylation assay with acetyl-ACS2 peptide (Sirt3): Quercetin caused a concentration-dependent inhibition of all Sirtuin isoforms except for Sirt6

O=c1c(O[C@@H]2O[C@H](CO)[C@@H](O)[C@H](O)[C@H]2O)c(-c2ccc(O)c(O)c2)oc2cc(O)cc(O)c12 [compound 4, isoquercetin]
crystal structure (1.90 Å in Table 1); MS deacetylation assay (activation) (Sirt6 [1]): we determined a crystal structure of a Sirt6/ADP-ribose/isoquercetin complex

Oc1cc(O)c2cc(O)c(-c3ccc(O)c(O)c3)[o+]c2c1 [compound 6, cyanidin]
crystal structure at 2.10 Å; MS deacetylation assay (activation at 20-80 μM) (Sirt6 [2]): we solved a crystal structure of a Sirt6/ADP-ribose/cyanidin complex
